{"source": "patent US9549556B2", "about": "“Macrocyclic picolinamides as fungicides” (DOW AGROSCIENCES LLC, priority 2013, dated 2017)", "key": {"Rhyncosporium secalis": {"tested_on": "Rhyncosporium secalis", "test": "Barley scald (RHYNSE) disease control", "format": "in vivo", "conditions": "1 DP, 100 ppm"}, "Septoria tritici": {"tested_on": "Septoria tritici", "test": "Leaf blotch of wheat (SEPTTR) disease control on wheat seedlings", "format": "in vivo, Mycosphaerella graminicola (anamorph Septoria tritici)", "conditions": "Zymoseptoria tritici, 121.5 g/H, low volume (track spray) application, read-out: SEPTTR disease control rating (% Control)", "method": "Evaluation of Fungicidal Activity: Leaf Blotch of Wheat (Mycosphaerella graminicola; Anamorph: Septoria tritici; Bayer Code […]) Technical grades of materials were dissolved in acetone, which were then mixed with nine volumes of water containing 110 ppm Triton X-100. The fungicide solutions were applied onto wheat seedlings using an automated booth sprayer to run-off. All sprayed plants were allowed to air dry prior to further handling. All fungicides were evaluated using the aforementioned method for their activity vs. all target diseases. Wheat leaf blotch and brown rust activity were also evaluated using track spray applications, in which case the fungicides were formulated as EC formulations, containing 0.1% Trycol 5941 in the spray solutions. Wheat plants (variety Yuma) were grown from seed in a greenhouse in 50% mineral soil/50% soil-less Metro mix until the first leaf was fully emerged, with 7-10 seedlings per pot. These plants were inoculated with an aqueous spore suspension of Septoria tritici either prior to or after fungicide treatments. After inoculation the plants were kept in 100% relative humidity (one day in a dark dew chamber followed by two to three days in a lighted dew chamber at 20° C.) to permit spores to germinate and infect the leaf. The plants were then transferred to a greenhouse set at 20° C. for disease to develop. When disease symptoms were fully expressed on the 1st leaves of untreated plants, infection levels were assessed on a scale of 0 to 100 percent disease severity. Percent disease control was calculated using the ratio of disease severity on treated plants relative to untreated plants."}, "Cercospora beticola": {"tested_on": "Cercospora beticola", "test": "Leaf spot of sugar beets (CERCBE) disease control", "format": "in vivo", "conditions": "1 DP, 100 ppm, sugar beet"}, "[1]": {"tested_on": "Blumeria graminis f. sp. hordei", "test": "Barley powdery mildew (ERYSGH) disease control", "format": "in vivo", "conditions": "1 DP, 100 ppm"}, "[2]": {"tested_on": "Colletotrichum lagenarium", "test": "Cucumber anthracnose (COLLLA) disease control", "format": "in vivo, Glomerella lagenarium (anamorph Colletotrichum lagenarium)", "conditions": "1 DP, 100 ppm"}, "Erysiphe cichoracearum": {"tested_on": "Erysiphe cichoracearum", "test": "Powdery mildew of cucumber (ERYSCI) disease control", "format": "in vivo", "conditions": "1 DP, 100 ppm"}, "Puccinia triticina": {"tested_on": "Puccinia triticina", "test": "Wheat brown rust (PUCCRT) disease control on wheat seedlings", "format": "in vivo", "conditions": "121.5 g/H, low volume (track spray) application, read-out: PUCCRT disease control rating (% Control)"}, "Leptosphaeria nodorum": {"tested_on": "Leptosphaeria nodorum", "test": "Wheat glume blotch (LEPTNO) disease control", "format": "in vivo", "conditions": "1 DP, 100 ppm"}, "Alternaria solani": {"tested_on": "Alternaria solani", "test": "Tomato early blight (ALTESO) disease control", "format": "in vivo", "conditions": "1 DP, 100 ppm"}, "Uncinula necator": {"tested_on": "Uncinula necator", "test": "Grape powdery mildew (UNCINE) disease control", "format": "in vivo", "conditions": "1 DP, 100 ppm"}, "Pyricularia oryzae": {"tested_on": "Pyricularia oryzae", "format": "in vivo, Magnaporthe grisea (anamorph Pyricularia oryzae)", "conditions": "1 DP, 100 ppm, rice"}}, "note": "Read-outs that look alike come from different tables or passages of the source."}
{"smiles": "CCCC[C@H]1[C@H](C)OC(=O)[C@@H](NC(=O)c2nccc(OC)c2OC(C)=O)COC[C@@H]1OCC1CC1", "note": "[Compound 9]", "values": [{"measurement": "RHYNSE disease control rating (% Control)", "setting": "Rhyncosporium secalis", "result": "A (>70)"}, {"measurement": "pest or weed control at 121.5 g/ha", "setting": "Septoria tritici; 24 h, 1DP (1 Day Protectant)", "result": "> 70", "unit": "%"}, {"measurement": "pest or weed control at 121.5 g/ha", "setting": "Septoria tritici; 72 h, 3DC (3 Day Curative)", "result": "> 70", "unit": "%"}, {"measurement": "CERCBE disease control rating (% Control)", "setting": "Cercospora beticola", "result": "B (≦70)"}, {"measurement": "ERYSGH disease control rating (% Control)", "setting": "[1]", "result": "B (≦70)"}, {"measurement": "COLLLA disease control rating (% Control)", "setting": "[2]", "result": "A (>70)"}, {"measurement": "ERYSCI disease control rating (% Control)", "setting": "Erysiphe cichoracearum", "result": "B (≦70)"}, {"measurement": "pest or weed control at 121.5 g/ha", "setting": "Puccinia triticina; 24 h, 1DP (1 Day Protectant)", "result": "> 70", "unit": "%"}, {"measurement": "pest or weed control at 121.5 g/ha", "setting": "Puccinia triticina; 72 h, 3DC (3 Day Curative)", "result": "> 70", "unit": "%"}, {"measurement": "LEPTNO disease control rating (% Control)", "setting": "Leptosphaeria nodorum", "result": "A (>70)"}, {"measurement": "ALTESO disease control rating (% Control)", "setting": "Alternaria solani", "result": "B (≦70)"}, {"measurement": "UNCINE disease control rating (% Control)", "setting": "Uncinula necator", "result": "A (>70)"}, {"measurement": "PYRIOR disease control rating (% Control)", "setting": "Pyricularia oryzae", "result": "B (≦70)"}]}
